The values that follow come from US20230304010A1, “COMPOSITIONS AND METHODS FOR TREATING VIRAL INFECTIONS” (priority 2020, published 2023).

For one data set, the system named is SARS-CoV-2 ORF 8 gene. It is filed as cell-based.
The subject of data set [1] is SARS-CoV-2. Nature of the data set: siRNA/ADGN-100 complexes on SARS-CoV2 virus infection, Vero E6 cells. In kind it is cell-based.
The test system of another data set is Vero-6 cells. Nature of the data set: Cellular toxicity of siRNA/ADGN-100 complexes on Vero-6 cells, CellTiter-Glo. The settings on record: uninfected Vero-6 cells. (In general: ATP-based viability assays read luminescence as a measure of living cells.)
The subject of data set [2] is SARS-CoV-2. Nature of the data set: microbe, parasite or virus in culture.
Data set [3] can be described thus: Nanoparticle formation of peptides with ADGN-106: mean size and polydispersity (Zetasizer). In kind it is physicochemical. The following applies: 25° C. The source says: We then tested the ability of the different peptides to form nanoparticle organization in the presence of ADGN-106 or ADGN-100 peptide. […] Peptides were complexed with 5 or 10 molar excess of ADGN-106.

Data set [4] in a line: Lung and liver toxicity studies after intratracheal instillation. How it is done: Single dose of peptides or peptide/siRNA complexes were administrated via intratracheal instillation (200 μg) (Table 20). Saline solution was used as negative control. Samples were collected 12, 24, 48 and 72 hr post administration.
The body weight of the mice were recorded before intratracheal instillation (day 0), at day1, day 2 and before being sacrificed (day 3). The lung, liver, heart, kidney and brain were collected at day 3 and organ index were determined.
Bronchoalveolar lavage (BAL) were performed 2 days after instillation. The percentage of the cells, the total protein and level of LDH in the BAL were analyzed.
AST and ALT levels in the plasma were assayed 2 days after instillation.

Data set [5] concerns SARS-CoV-2.
Data set [6] concerns SARS-CoV-2. The source holds these as a separate data set.
Data set [7] relates to SARS-CoV-2 Nucleocapsid gene. In kind it is cell-based.
A further data set concerns SARS-CoV-2 nucleocapside. In kind it is cell-based. The settings on record: read-out: IC50 of silencing response.
The next data set relates to SARS-CoV-2 ORF 3A gene. In kind it is cell-based.
[8] abbreviates: read-out: IC50 against SARS-CoV2 virus infection.
Setting [9] is: siRNA complexed with ADGN-100 at molar ratio 1/20, added to Vero-E6 immediately prior to virus infection, read-out: IC50.
Where [10] appears, read: read-out: SARS-COV2 IC50, original strain, second Table 19, siRNA complexed at molar ratio 1/20.

Several values for one entry are separate records, joined by “and”; a condition that tells them apart may be missing. Identical values can stand only once. Like-named read-outs stand apart in the source and are kept apart here.

“GTCCTATTCACTTCTATTCTA (chemistry not given here) [DIVC-85]”: the IC50 was 10.8 ± 2 nM in the data set on SARS-CoV-2 ORF 8 gene, ~1000 nM in the data set on SARS-CoV-2 [1] (setting [8]) and 1220 nM with SARS-CoV-2 [1] (setting [9]). The “TD50 (μM)” value with Vero-6 cells is 248 + 35 μM.

With `CCN(CCO)CCCC(C)Nc1ccnc2cc(Cl)ccc12` (stereo not drawn) [Hydroxy chloroquine], the “TD50” value in the data set with Vero E6 cells (African green monkey) amounted to 190 ± 28 µM. Further, the IC50 was determined as 4400 ± 215 nM in the data set with SARS-CoV-2 [2] (Severe acute respiratory syndrome coronavirus 2, Vero C1008, read-out: IC50 against SARS-CoV2 virus infection); 4700 nM in the data set on SARS-CoV-2 [2] (Severe acute respiratory syndrome coronavirus 2, Vero C1008, read-out: P-IC50 (nM)); 4400 ± 215 nM with SARS-CoV-2 [2] (Severe acute respiratory syndrome coronavirus 2, Vero, read-out: D-IC50 (nM)).

“GCGTTGTTCGTTCTATGAAGA (chemistry not given here) [DIVC-84]” showed an IC50 in the data set with SARS-CoV-2 ORF 8 gene of 113 ± 15 nM.

Consider “Ac-N*GVEGFNK*Ava-LWRALWRLWRSLWRLLWK-NH2 [Seq17]”, for which the “Mean Size (nm)” value in data set [3] (peptide/ADGN-106 complexes) came out at 57 ± 4 nm. Also, the PI in data set [3] (polydispersity index of peptide/ADGN-106 complexes) is 0.17. Also, the “percentage of the cells in bronchoalveolar lavage” value in data set [4] (2 days after instillation, versus saline) was “slight increases of macrophages”. The “lung and liver toxicity associated to treatment” value in data set [4] (mouse, in vivo) is “no lung and liver toxicity”. The “Residual Infection (%)” value with SARS-CoV-2 [5] is on record as 20%. Moreover, the “inhibition of viral infection” value in the data set on SARS-CoV-2 [5] is reported as “exhibit inhibition of viral infection”. For the same compound, in the data set with SARS-CoV-2 [5], the “reduction of anti-viral activity by pre-incubation” value was found to be 2 fold. For the same compound, the IC50 with SARS-CoV-2 [5] (read-out: D-IC50) was found to be 21.5 ± 12 nM; with SARS-CoV-2 [5] (read-out: IC50, SARS-COV2) it was 31.5 ± 12 nM; in the data set on SARS-CoV-2 [5] (read-out: P-IC50), 57.2 ± 12 nM; with SARS-CoV-2 [6] (setting [10]), 31.5 ± 12 nM; in the data set with SARS-CoV-2 [6] (treatments added to Vero-E6 immediately prior to virus infection, Table 16), 27.5 ± 11 nM. Further, in the data set with Vero E6 cells (uninfected Vero E6 cells), the “TD50” value came out at 340 ± 28 µM. In the data set with Vero E6 cells (uninfected Vero E6 cells, 0.5 µM), the “Cell Viability (%)” value worked out at 85%.

Take “GTTGATGACCCGTGTCCTATT (chemistry not given here) [DIVC-81]”: the IC50 in the data set on SARS-CoV-2 ORF 8 gene was > 200 nM.

With “GGCCAAACTGTCACTAAGAAA (chemistry not given here) [DIVC-6]”, the IC50 in data set [7] was 8.7 ± 2 nM; in the data set on SARS-CoV-2 [1] (setting [9]), 68 ± 12 nM; in the data set on SARS-CoV-2 nucleocapside, 11 nM and 8.7 nM; with SARS-CoV-2 [6] (setting [10]), 68 nM. In the data set on SARS-CoV-2 [1], the “fold stronger anti-SARS-CoV-2 activity than hydroxychloroquine sulfate” value amounted to 64 fold. The “TD50 (μM)” value in the data set on Vero-6 cells was 652 + 24 μM.

GTGGATGAGGCTGGTTCTAAA [DIVC-83] registered an IC50 in the data set with SARS-CoV-2 ORF 8 gene of 15.4 ± 3 nM.

For the compound GACCCGTGTCCTATTCACTTC [DIVC-82], the IC50 with SARS-CoV-2 ORF 8 gene is 21.7 ± 7 nM.

Regarding “GAACATGTTACCTTCTTCATC (chemistry not given here) [DIVC-34]”, the figures for the concentration for half-maximal inhibition (IC50) in the data set with SARS-CoV-2 ORF 3A gene, with SARS-CoV-2 [1] (setting [8]) and with SARS-CoV-2 [1] (setting [9]) were 12.3 ± 1 nM, ~1000 nM and 1450 nM, respectively. Also, in the data set on Vero-6 cells, the “TD50 (μM)” value was 589 + 17 μM.

What is called IC50 is the concentration that gives 50% inhibition.
